What was measured:
Format in all cases: cell-based
human A2A receptor = molecular target: T1, human A2A receptor (Homo sapiens, UniProt P29274); assay: functional cAMP (HTRF) assay, recombinant HEK293 cells expressing human A2A receptor, agonist NECA
T1 construct: expressed in transfected cells; host or cells: HEK293

A2B receptors = molecular target: T2, A2B receptors (Homo sapiens, UniProt P29275); assay: functional cAMP (HTRF) assay, recombinant HEK293 cells expressing human A2B receptor, agonist NECA; design: expressed in transfected cells; host or cells: HEK293
T2 sequence (P29275 1-332): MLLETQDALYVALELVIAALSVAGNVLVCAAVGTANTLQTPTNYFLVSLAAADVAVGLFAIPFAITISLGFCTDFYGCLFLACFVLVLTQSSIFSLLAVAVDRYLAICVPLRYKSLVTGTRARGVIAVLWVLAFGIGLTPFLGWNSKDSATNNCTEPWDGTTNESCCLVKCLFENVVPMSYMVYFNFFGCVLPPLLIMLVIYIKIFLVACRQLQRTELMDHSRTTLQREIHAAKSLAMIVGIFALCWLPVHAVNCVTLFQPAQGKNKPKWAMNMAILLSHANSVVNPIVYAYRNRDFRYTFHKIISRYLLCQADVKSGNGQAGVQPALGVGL

human A1 receptor = molecular target: T3, human A1 receptor (Homo sapiens, UniProt P30542); assay: functional cAMP (HTRF) assay, recombinant CHO cells expressing human A1 receptor, forskolin, agonist CPA
T3 construct: expressed in transfected cells; host or cells: CHO
T3 sequence (P30542 1-326): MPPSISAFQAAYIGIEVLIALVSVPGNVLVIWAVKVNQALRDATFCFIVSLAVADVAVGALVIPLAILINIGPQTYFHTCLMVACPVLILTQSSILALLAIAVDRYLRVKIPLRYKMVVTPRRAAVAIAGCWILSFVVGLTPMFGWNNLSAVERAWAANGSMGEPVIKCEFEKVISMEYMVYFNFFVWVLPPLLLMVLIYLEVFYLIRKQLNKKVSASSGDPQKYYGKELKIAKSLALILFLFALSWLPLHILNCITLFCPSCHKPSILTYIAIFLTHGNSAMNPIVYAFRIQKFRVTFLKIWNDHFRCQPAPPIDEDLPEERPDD
Description: (§1) The functional activities of human A2A, A2B, A1 and A3 receptors were determined by quantification of cAMP, being the second messenger for adenosine receptors.
(§2) For human A1 and A3 receptors, recombinant CHO cells, expressing either A1 or A3-receptor, were used. As both receptors couple to Gi proteins, the assay protocol was adapted:
(§3) Cells were seeded into 384-well plates, forskolin, test compounds and agonists (CPA for A1- and IB-MECA for A3-receptor) were added. After 30 min incubation, HTRF reagents (cAMP dynamic 2, Cis Bio) were added and the cellular cAMP levels were determined using the ENVISION (Perkin Elmer) plate reader. Obtained raw data were normalized against the inhibitor control and the neural control (DMSO) and the normalized data were fitted using GeneData software.

human A3 receptor = molecular target: T4, human A3 receptor (Homo sapiens, UniProt P0DMS8); assay: functional cAMP (HTRF) assay, recombinant CHO cells expressing human A3 receptor, forskolin, agonist IB-MECA
T4 construct: expressed in transfected cells; host or cells: CHO
T4 sequence (P0DMS8 1-318): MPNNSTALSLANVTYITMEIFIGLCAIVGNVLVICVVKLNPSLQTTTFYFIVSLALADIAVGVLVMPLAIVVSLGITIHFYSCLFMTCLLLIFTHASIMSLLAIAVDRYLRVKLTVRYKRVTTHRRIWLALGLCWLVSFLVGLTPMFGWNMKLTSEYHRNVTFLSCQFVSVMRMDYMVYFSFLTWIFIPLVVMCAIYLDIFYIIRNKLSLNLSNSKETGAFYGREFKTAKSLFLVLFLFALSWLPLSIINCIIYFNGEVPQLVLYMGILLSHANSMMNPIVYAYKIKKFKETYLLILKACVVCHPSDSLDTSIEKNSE
Description: as §1, §2, §3

T1 sequence (P29274 whole entry): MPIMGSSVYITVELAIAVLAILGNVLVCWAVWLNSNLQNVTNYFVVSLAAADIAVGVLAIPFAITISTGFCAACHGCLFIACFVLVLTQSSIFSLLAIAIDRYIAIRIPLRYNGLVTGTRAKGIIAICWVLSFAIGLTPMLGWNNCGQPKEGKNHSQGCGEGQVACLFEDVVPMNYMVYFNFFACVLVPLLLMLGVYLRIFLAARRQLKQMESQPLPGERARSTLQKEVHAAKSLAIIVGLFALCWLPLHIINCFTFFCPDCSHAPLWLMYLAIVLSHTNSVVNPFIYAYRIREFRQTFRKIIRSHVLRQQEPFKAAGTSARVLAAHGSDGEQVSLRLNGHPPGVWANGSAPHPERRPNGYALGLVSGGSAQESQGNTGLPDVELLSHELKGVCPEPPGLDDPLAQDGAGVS

SMILES	IC50 (human A2A receptor)	IC50 (A2B receptors)	IC50 (human A1 receptor)	IC50 (human A3 receptor)
COc1ccc(-c2cnn(C(F)F)c2)c2nc(NC(=O)N3CCC(C)(O)CC3)[nH]c12 [compound 229, N-{7-[1-(difluoromethyl)-1H-pyrazol-4-yl]-4-methoxy-1H-1,3-benzodiazol-2-yl}-4-hydroxy-4-methylpiperidine-1-carboxamide]	< 0.1 µM		> 1 µM	> 1 µM
COCCOCCn1cc(-c2ccc(OC)c3nc(NC(=O)N4CCC(C)(O)CC4)[nH]c23)cn1 [compound 230, 4-hydroxy-N-(4-methoxy-7-{1-[2-(2-methoxyethoxy)ethyl]-1H-pyrazol-4-yl}-1H-1,3-benzodiazol-2-yl)-4-methylpiperidine-1-carboxamide]	< 0.1 µM		> 1 µM	> 1 µM
COc1ccc(-c2cnn(-c3ccccn3)c2)c2[nH]c(NC(=O)N3CCC(C)(O)CC3)nc12 [compound 231, 4-hydroxy-N-{4-methoxy-7-[1-(pyridin-2-yl)-1H-pyrazol-4-yl]-1H-1,3-benzodiazol-2-yl}-4-methylpiperidine-1-carboxamide]	< 0.1 µM		< 1 µM	< 1 µM
CCCC1(c2ccc(OC)c3[nH]c(NC(=O)c4cnn(C)c4)nc23)CC1 [compound 232, N-[7-methoxy-4-(1-propylcyclopropyl)-1H-1,3-benzodiazol-2-yl]-1-methyl-1H-pyrazole-4-carboxamide]	< 0.1 µM		> 1 µM	< 1 µM
CCCC(CC)c1ccc(OC)c2[nH]c(NC(=O)c3cnn(C)c3)nc12 (stereo not shown) [compound 233, N-[4-(hexan-3-yl)-7-methoxy-1H-1,3-benzodiazol-2-yl]-1-methyl-1H-pyrazole-4-carboxamide]	< 0.1 µM		> 1 µM	< 0.01 µM
COc1ccc(-c2cnn(C3CCOC3)c2)c2nc(NC(=O)N3CCC(C)(O)CC3)[nH]c12 (stereo not shown) [compound 241, 4-hydroxy-N-{4-methoxy-7-[1-(oxolan-3-yl)-1H-pyrazol-4-yl]-1H-1,3-benzodiazol-2-yl}-4-methylpiperidine-1-carboxamide]	< 0.1 µM		> 1 µM	> 1 µM
COc1ccc(-c2cnn(C3CN(C(=O)OC(C)(C)C)C3)c2)c2[nH]c(NC(=O)N3CCC(C)(O)CC3)nc12 [compound 245, tert-butyl 3-(4-{2-[(4-hydroxy-4-methylpiperidine-1-carbonyl)amino]-4-methoxy-1H-1,3-benzodiazol-7-yl}-1H-pyrazol-1-yl)azetidine-1-carboxylate]	< 0.1 µM		> 1 µM	> 1 µM
COc1ccc(-c2ccnc3[nH]ccc23)c2[nH]c(NC(=O)N3CCC(C)(O)CC3)nc12 [compound 270, 4-hydroxy-N-(7-methoxy-4-{1H-pyrrolo[2,3-b]pyridin-4-yl}-1H-1,3-benzodiazol-2-yl)-4-methylpiperidine-1-carboxamide]	< 0.1 µM		> 1 µM	> 1 µM
COc1ccc(-c2ccc3cc[nH]c3c2)c2nc(NC(=O)N3CCC(C)(O)CC3)[nH]c12 [compound 272, 4-hydroxy-N-[4-(1H-indol-6-yl)-7-methoxy-1H-1,3-benzodiazol-2-yl]-4-methylpiperidine-1-carboxamide]	< 0.1 µM	< 0.1 µM	> 1 µM	
COc1ccc(-c2ccc3c(cnn3C)c2)c2nc(NC(=O)N3CCC(C)(O)CC3)[nH]c12 [compound 273, 4-hydroxy-N-[7-methoxy-4-(1-methyl-1H-indazol-5-yl)-1H-1,3-benzodiazol-2-yl]-4-methylpiperidine-1-carboxamide]	< 0.1 µM		> 1 µM	> 1 µM
COc1ccc(-c2ccccc2)c2nc(NC(=O)c3cnc4n3CCCC4)[nH]c12 [compound 291, N-(7-methoxy-4-phenyl-1H-1,3-benzodiazol-2-yl)-5H,6H,7H,8H-imidazo[1,2-a]pyridine-3-carboxamide]	< 0.1 µM	< 0.1 µM	< 1 µM	
COc1ccc(-c2cccc3c2CCN3)c2nc(NC(=O)N3CCC(C)(O)CC3)[nH]c12 [compound 292, N-[4-(2,3-dihydro-1H-indol-4-yl)-7-methoxy-1H-1,3-benzodiazol-2-yl]-4-hydroxy-4-methylpiperidine-1-carboxamide]	< 0.1 µM		< 0.01 µM	> 1 µM

Now from value to molecule:

IC50 (human A2A receptor)	IC50 (A2B receptors)	IC50 (human A1 receptor)	IC50 (human A3 receptor)	SMILES
< 0.01 µM	< 1 µM	> 1 µM	< 0.1 µM	COc1ccc(-c2ccccc2)c2nc(NC(=O)c3ccnc(N4CCOCC4)c3)[nH]c12 [compound 7, N-(7-Methoxy-4-phenyl-1H-benzoimidazol-2-yl)-2-morpholin-4-yl-isonicotinamide]
< 0.01 µM	> 1 µM	> 1 µM	< 1 µM	COc1ccc(-c2ccccc2)c2nc(NC(=O)c3ccc(N4CCOCC4)nc3)[nH]c12 [compound 8, N-(7-Methoxy-4-phenyl-1H-benzoimidazol-2-yl)-6-morpholin-4-yl-nicotinamide]
< 0.01 µM	< 1 µM	> 1 µM	< 1 µM	COc1ccc(-c2ccccc2)c2nc(NC(=O)c3ccc(CN)cc3)[nH]c12 [compound 13, 4-Aminomethyl-N-(7-methoxy-4-phenyl-1H-benzoimidazol-2-yl)-benzamide]
< 0.01 µM	> 1 µM	> 1 µM	< 1 µM	COc1ccc(C2CCCCC2)c2nc(NC(=O)N3CCC(C)(O)CC3)[nH]c12 [compound 16, 4-Hydroxy-4-methyl-piperidine-1-carboxylic acid (4-cyclohexyl-7-methoxy-1H-benzoimidazol-2-yl)-amide]
< 0.01 µM	> 1 µM	> 1 µM	< 1 µM	COc1ccc(-c2cnn(C)c2)c2nc(NC(=O)c3ccnc(N4CCOCC4)c3)[nH]c12 [compound 26, N-[7-Methoxy-4-(1-methyl-1H-pyrazol-4-yl)-1H-benzoimidazol-2-yl]-2-morpholin-4-yl-isonicotinamide]
< 0.01 µM	> 1 µM	> 1 µM	> 1 µM	COc1ccc(-c2cnn(C)c2)c2nc(NC(=O)c3ccc(CN(C)C)cc3)[nH]c12 [compound 48, 4-[(dimethylamino)methyl]-N-[7-methoxy-4-(1-methyl-1H-pyrazol-4-yl)-1H-1,3-benzodiazol-2-yl]benzamide]
< 0.01 µM	< 1 µM	> 1 µM	< 0.1 µM	COCc1ccc(C(=O)Nc2nc3c(-c4cnn(C)c4)ccc(OC)c3[nH]2)cc1 [compound 49, N-[7-methoxy-4-(1-methyl-1H-pyrazol-4-yl)-1H-1,3-benzodiazol-2-yl]-4-(methoxymethyl)benzamide]
< 0.1 µM		> 1 µM	> 1 µM	COc1ccc(N2CCCCCC2)c2nc(NC(=O)N3CCC(C)(O)CC3)[nH]c12 [compound 216, N-[4-(azepan-1-yl)-7-methoxy-1H-1,3-benzodiazol-2-yl]-4-hydroxy-4-methylpiperidine-1-carboxamide]
< 0.1 µM		> 1 µM	> 1 µM	COc1ccc(C2CCOCC2)c2nc(NC(=O)C3(C#N)CC3)[nH]c12 [compound 226, 1-cyano-N-[7-methoxy-4-(oxan-4-yl)-1H-1,3-benzodiazol-2-yl]cyclopropane-1-carboxamide]
< 0.01 µM		> 1 µM	< 1 µM	COc1ccc(C2CCOCC2)c2nc(NC(=O)c3cnc(C)o3)[nH]c12 [compound 234, N-[7-methoxy-4-(oxan-4-yl)-1H-1,3-benzodiazol-2-yl]-2-methyl-1,3-oxazole-5-carboxamide]
< 0.01 µM	< 0.01 µM	< 1 µM		COCCOc1cccc(-c2ccc(OC)c3nc(NC(=O)c4c[nH]cn4)[nH]c23)c1 [compound 267, N-{4-methoxy-7-[3-(2-methoxyethoxy)phenyl]-1H-1,3-benzodiazol-2-yl}-1H-imidazole-4-carboxamide]

Reference: patent publication US11453647B2, “Benzimidazole derivatives as adenosine receptor antagonists” (Merck Patent GmbH, priority 2017, dated 2022)
